# Test results from PMC11432330, “Novel Drug-like HsrA Inhibitors Exhibit Potent Narrow-Spectrum Antimicrobial Activities against Helicobacter pylori” (International Journal of Molecular Sciences, 2024).
# Test system: H. pylori 26695
# Test: In vivo inhibition of HsrA: RNA-Seq transcriptomic analysis of exposed cells
# Type: cell-based, Helicobacter pylori
# Settings: for log2 Fold Change: exposed to lethal concentrations vs control
# Method: Bacterial growth from three blood agar plates of H. pylori ATCC 700392 (aka 26695) incubated for 48 h at 37 °C under microaerobic conditions was aseptically resuspended in BHI + FBS and adjusted to 10^7 CFU/mL. BHI broth cultures were incubated microaerobically at 37 °C for 24 h. […] At this time, bacterial growth was stopped by adding 1.5 mL ice-cold RNA stop solution (95% absolute ethanol, 5% acid-buffered phenol) and subsequently incubated on ice. Control samples were exposed to the same amount of DMSO instead of the inhibitor. Helicobacter cells from all samples were harvested by centrifugation (4000 rpm at 4 °C for 10 min), then the pellets were quickly frozen by immersion in liquid nitrogen and stored at −80 °C.
# RNA-Seq analysis was performed by GENEWIZ (Azenta Life Sciences, Leipzig, Germany). Frozen cell pellets from two biological replicates of each treatment condition were properly submitted to GENEWIZ in dry ice. RNA-Seq libraries were prepared according to standard protocols via rRNA depletion, RNA fragmentation and random priming, reverse transcription, 5’-phosphorylation and dA-tailing of cDNAs, adaptor ligation, and PCR enrichment. Once the quality of each library was confirmed, they were sequenced on an Illumina NovaSeq 6000 (Illumina, San Diego, CA, USA) with 150-bp paired-ends. Raw sequence reads were filtered to remove possible adapter sequences and nucleotides with poor quality using Trimmomatic v.0.36 [105]. The trimmed reads were subsequently mapped to the H. pylori strain 26695 reference genome NC_000915.1 available on NCBI, by using the Bowtie2 aligner v.2.2.6 [106]. Unique gene hit counts were calculated by using featureCounts from the Subread package v.1.5.2. Only unique reads that fell within the gene regions were counted. Using DESeq2 [108], a comparison of the gene expression between the control and treated groups of samples was performed. The Wald test was used to generate p-values and log2 fold changes. Genes with an adjusted p-value < 0.05 and absolute log2 fold change >1 were considered as differentially expressed genes (DEGs) for each comparison. The RNA-Seq data generated in this study have been deposited in ArrayExpress with the accession number E-MTAB-14255.
smiles,measurement,setting,value
"NC(=NOC(=O)Nc1ccc(Cl)cc1)c1csc([N+](=O)[O-])c1 [Ligand V, N′-{[(4-chloroanilino)carbonyl]}oxy-5-nitrothiophene-3-carboximidamide]",log2 Fold Change,gene HP1464,-0.584
same,log2 Fold Change,gene HP1467,1.322
same,log2 Fold Change HP1469,"gene HP1469, lethal concentrations of V vs control",0.362
same,log2 Fold Change,gene HP1470,1.312
same,log2 Fold Change HP1473,"gene HP1473, lethal concentrations of V vs control",0.275
same,log2 Fold Change,gene HP1481,-0.602
same,log2 Fold Change HP1492,"gene HP1492, lethal concentrations of V vs control",0.282
same,log2 Fold Change HP1499,"gene HP1499, lethal concentrations of V vs control",0.340
same,log2 Fold Change HP1501,"gene HP1501, lethal concentrations of V vs control",0.305
same,log2 Fold Change,gene HP1504,1.311
same,log2 Fold Change HP1505,"gene HP1505, lethal concentrations of V vs control",0.278
same,log2 Fold Change HP1512,"gene HP1512, lethal concentrations of V vs control",0.234
same,log2 Fold Change,gene HP1513,-0.489
same,log2 Fold Change HP1521,"gene HP1521, lethal concentrations of V vs control",0.260
same,log2 Fold Change,gene HP1537,-0.495
same,log2 Fold Change HP1539,"gene HP1539, lethal concentrations of V vs control",0.288
same,log2 Fold Change,gene HP1556,-0.480
same,log2 Fold Change HP1562,"gene HP1562, lethal concentrations of V vs control",0.282
same,log2 Fold Change,gene HP1572,-0.532
same,log2 Fold Change,gene HP1573,-0.478
same,log2 Fold Change,gene HPrrnA16S,2.639
same,log2 Fold Change,gene acpS,-0.554
same,log2 Fold Change adk,"gene adk, lethal concentrations of V vs control",0.370
same,log2 Fold Change aroB,"gene aroB, lethal concentrations of V vs control",0.331
same,log2 Fold Change ddl,"gene ddl, lethal concentrations of V vs control",0.165
same,log2 Fold Change dnaA,"gene dnaA, lethal concentrations of V vs control",0.315
same,log2 Fold Change dnaG,"gene dnaG, lethal concentrations of V vs control",0.180
same,log2 Fold Change dut,"gene dut, lethal concentrations of V vs control",0.253
same,log2 Fold Change fbcH,"gene fbcH, lethal concentrations of V vs control",0.402
same,log2 Fold Change flgD,"gene flgD, lethal concentrations of V vs control",0.479
same,log2 Fold Change flgH,"gene flgH, lethal concentrations of V vs control",0.237
same,log2 Fold Change flhF,"gene flhF, lethal concentrations of V vs control",0.252
same,log2 Fold Change,gene fliQ,-0.518
same,log2 Fold Change fliR,"gene fliR, lethal concentrations of V vs control",0.363
same,log2 Fold Change folE,"gene folE, lethal concentrations of V vs control",0.244
same,log2 Fold Change fusA,"gene fusA, lethal concentrations of V vs control",0.268
same,log2 Fold Change,gene gcp,-0.507
same,log2 Fold Change glmM,"gene glmM, lethal concentrations of V vs control",0.344
same,log2 Fold Change,gene gltX,-0.588
same,log2 Fold Change gmk,"gene gmk, lethal concentrations of V vs control",0.172
same,log2 Fold Change groES,"gene groES, lethal concentrations of V vs control",0.428
same,log2 Fold Change guaA,"gene guaA, lethal concentrations of V vs control",0.370
same,log2 Fold Change gyrB,"gene gyrB, lethal concentrations of V vs control",0.200
same,log2 Fold Change,gene hemC,-0.538
same,log2 Fold Change hypA,"gene hypA, lethal concentrations of V vs control",0.375
same,log2 Fold Change infB,"gene infB, lethal concentrations of V vs control",0.319
same,log2 Fold Change ksgA,"gene ksgA, lethal concentrations of V vs control",0.343
same,log2 Fold Change,gene lpxB,-0.543
same,log2 Fold Change lpxK,"gene lpxK, lethal concentrations of V vs control",0.332
same,log2 Fold Change mnmA,"gene mnmA, lethal concentrations of V vs control",0.256
same,log2 Fold Change motB,"gene motB, lethal concentrations of V vs control",0.465
same,log2 Fold Change mraY,"gene mraY, lethal concentrations of V vs control",0.155
same,log2 Fold Change nusB,"gene nusB, lethal concentrations of V vs control",0.152
same,log2 Fold Change oorC,"gene oorC, lethal concentrations of V vs control",0.231
same,log2 Fold Change,gene panC,1.338
same,log2 Fold Change,gene pheT,-0.561
same,log2 Fold Change porA,"gene porA, lethal concentrations of V vs control",0.146
same,log2 Fold Change prfB,"gene prfB, lethal concentrations of V vs control",0.329
same,log2 Fold Change pyrH,"gene pyrH, lethal concentrations of V vs control",0.243
same,log2 Fold Change recA,"gene recA, lethal concentrations of V vs control",0.430
same,log2 Fold Change,gene rnc,-0.477
same,log2 Fold Change,gene rplQ,-0.590
same,log2 Fold Change,gene rplW,-0.487
same,log2 Fold Change,gene rplX,-0.561
same,log2 Fold Change rpsB,"gene rpsB, lethal concentrations of V vs control",0.177
same,log2 Fold Change,gene rpsI,-0.579
same,log2 Fold Change ruvA,"gene ruvA, lethal concentrations of V vs control",0.457
same,log2 Fold Change ruvB,"gene ruvB, lethal concentrations of V vs control",0.388
same,log2 Fold Change secD,"gene secD, lethal concentrations of V vs control",0.450
same,log2 Fold Change,gene tRNA-Arg-4,-0.569
same,log2 Fold Change,gene tRNA-Gln-1,1.327
same,log2 Fold Change tRNA-Ser-1,"gene tRNA-Ser-1, lethal concentrations of V vs control",0.297
same,log2 Fold Change,gene tRNA-Ser-2,1.370
same,log2 Fold Change tRNA-Ser-3,"gene tRNA-Ser-3, lethal concentrations of V vs control",0.425
same,log2 Fold Change,gene tRNA-Trp-1,-0.513
same,log2 Fold Change,gene tgt,-0.523
same,log2 Fold Change trpD,"gene trpD, lethal concentrations of V vs control",0.327
same,log2 Fold Change tsf,"gene tsf, lethal concentrations of V vs control",0.474
same,log2 Fold Change uvrA,"gene uvrA, lethal concentrations of V vs control",0.417
same,log2 Fold Change,gene xseA,-0.471
same,log2 Fold Change yajC,"gene yajC, lethal concentrations of V vs control",0.146
